The record followed here is US20070185161A1, “Bicyclic substituted indole-derivative steroid hormone nuclear receptor modulators” (priority 2004, published 2007).

Structures are written as SMILES.

This test addresses T1, human GR (glucocorticoid receptor) (Homo sapiens, UniProt P04150).
T1 construct: expressed in transfected cells; host or cells: 293 cells
T1 sequence (P04150 1-777): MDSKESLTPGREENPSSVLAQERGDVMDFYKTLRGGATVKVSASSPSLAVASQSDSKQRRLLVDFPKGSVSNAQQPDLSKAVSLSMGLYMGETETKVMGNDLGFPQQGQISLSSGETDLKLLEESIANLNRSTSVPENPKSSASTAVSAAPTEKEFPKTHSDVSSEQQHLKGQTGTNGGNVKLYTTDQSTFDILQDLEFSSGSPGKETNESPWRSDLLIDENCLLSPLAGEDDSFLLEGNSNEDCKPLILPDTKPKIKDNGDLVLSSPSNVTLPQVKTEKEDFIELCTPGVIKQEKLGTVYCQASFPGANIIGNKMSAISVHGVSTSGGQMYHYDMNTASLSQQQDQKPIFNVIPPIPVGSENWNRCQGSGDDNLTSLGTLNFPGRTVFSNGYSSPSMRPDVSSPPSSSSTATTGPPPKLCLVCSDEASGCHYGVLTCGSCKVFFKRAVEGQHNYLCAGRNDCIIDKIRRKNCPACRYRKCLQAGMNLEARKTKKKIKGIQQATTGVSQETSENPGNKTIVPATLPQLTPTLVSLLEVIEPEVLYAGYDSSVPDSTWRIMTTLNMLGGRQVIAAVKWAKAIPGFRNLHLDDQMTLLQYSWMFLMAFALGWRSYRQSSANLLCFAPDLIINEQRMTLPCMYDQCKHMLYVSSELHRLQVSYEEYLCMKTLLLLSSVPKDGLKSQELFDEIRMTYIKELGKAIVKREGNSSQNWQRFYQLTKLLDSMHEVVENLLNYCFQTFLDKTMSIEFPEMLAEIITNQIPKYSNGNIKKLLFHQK
Description: Alternative Binding Assay Protocol (Method 2), GR. The following applies: 3H-dexamethasone, 293-GR lysate, racemic mixture unless otherwise indicated. As to the method: Cell lysates from 293 cells overexpressing human GR (glucocorticoid receptor), AR (androgen receptor), MR (mineralocorticoid receptor) or PR (progesterone receptor) are used for competition binding assays to determine Ki values for test compounds. Briefly, competition binding assays are run in a buffer containing 20 mM Hepes, pH 7.6, 0.2 mM EDTA, 75 mM NaCl, 1.5 mM MgCl2, 20% glycerol, 20 mM sodium molybdate, 0.2 mM DTT, 20 ug/ml aprotinin and 20 ug/ml leupeptin, using either 0.3 nM ^3H-dexamethasone for GR binding, 0.36 nM ^3H-methyltrienolone for AR binding, 0.25 nM ^3H-aldosterone for MR binding, or 0.29 nM ^3H-methyltrienolone for PR binding, and either 20 ug 293-GR lysate, 22 ug 293-AR lysate, 20 ug 293-MR lysate or 40 ug 293-PR lysate per well. Competing compounds are added at various concentraions in half-log increments. Non-specific binding is determined in the presence of 500 nM dexamethasone for GR binding, 500 nM aldosterone for MR binding, or 500 nM methyltrienolone for AR and PR binding,. The binding reaction (140 μl) is incubated for overnight at […], then 70 μl of cold charcoal-dextran buffer (containing per 50 ml of assay buffer, 0.75 g of charcoal and 0.25 g of dextran) is added to each reaction. Plates are mixed 8 minutes on an orbital shaker at 4° C. Plates are then centrifuged at 3,000 rpm at 4° C. for 10 minutes. An aliquot of 120 μl of the mix is transferred to another 96-well plate and 175 μl of Wallac Optiphase “Hisafe 3” scintillation fluid is added to each well. Plates are sealed and shaken vigorously on an orbital shaker. After an incubation of 2 hrs, plates are read in a Wallac Microbeta counter. The data is used to calculate an IC50 and % Inhibition at 10 μM. The Kd for ^3H-dexamethasone for GR binding, ^3H-methyltrienolone for AR binding, ^3H-aldosterone for MR binding, or ^3H-methyltrienolone for PR binding, is determined by saturation binding. The IC50 values for compounds are converted to Ki using Cheng-Prusoff equation and the Kd determined by saturation binding assay.

In the case of `CC1(c2c[nH]c3c(NS(C)(=O)=O)cccc23)CCc2cc(F)cc(F)c21` (racemic) [Example 22, N-[3-(5,7-Difluoro-1-methyl-indan-1-yl)-1H-indol-7-yl]-methanesulfonamide], the Ki (commonly a measure of affinity in units of concentration, obtained from inhibition or displacement) is no more than 500 nM.
With `CC1(c2c[nH]c3c(NS(C)(=O)=O)cccc23)CCOc2cc(F)ccc21` (racemic) [Example 34, N-[3-(7-Fluoro-4-methyl-chroman-4-yl)-1H-indol-7-yl]-methanesulfonamide] the figure was no more than 500 nM.
The result for `CCC1(c2c[nH]c3c(NS(C)(=O)=O)cccc23)CCOc2cc(F)ccc21` (racemic) [Example 35, N-[3-(4-Ethyl-7-fluoro-chroman-4-yl)-1H-indol-7-yl]-methanesulfonamide] reads no more than 500 nM; that for `CCC1(c2c[nH]c3c(NS(C)(=O)=O)cccc23)CCOc2cc(F)cc(F)c21` (racemic) [Example 36, N-[3-(4-Ethyl-5,7-difluoro-chroman-4-yl)-1H-indol-7-yl]-methanesulfonamide], no more than 500 nM; that for `CS(=O)(=O)Nc1cccc2c(C3(C4CC4)CCc4cc(F)ccc43)c[nH]c12` (racemic) [Example 39, N-[3-(1-Cyclopropyl-5-fluoro-indan-1-yl)-1H-indol-7-yl]-methanesulfonamide], no more than 500 nM.
The result for `CS(=O)(=O)Nc1cccc2c(C3(CCCO)CCc4cc(F)ccc43)c[nH]c12` (racemic) [Example 40, N-{3-[5-Fluoro-1-(3-hydroxy-propyl)-indan-1-yl]-1H-indol-7-yl}-methanesulfonamide] reads no more than 500 nM; that for `CC1(c2c[nH]c3c(NS(C)(=O)=O)cccc23)CCc2cc(F)cc(F)c21` (single isomer, unassigned) [Example 22A, N-[3-(5,7-Difluoro-1-methyl-indan-1-yl)-1H-indol-7-yl]-methanesulfonamide], no more than 500 nM.
For `CC1(c2c[nH]c3c(NS(C)(=O)=O)cccc23)CCc2cc(F)cc(F)c21` (single isomer, unassigned) [Example 22B, N-[3-(5,7-Difluoro-1-methyl-indan-1-yl)-1H-indol-7-yl]-methanesulfonamide], the Ki was no more than 500 nM.
Turning to `CC1(c2c[nH]c3c(NS(C)(=O)=O)cccc23)CCOc2cc(F)ccc21` (single isomer, unassigned) [Example 34A, N-[3-(7-Fluoro-4-methyl-chroman-4-yl)-1H-indol-7-yl]-methanesulfonamide], the Ki is no more than 500 nM.
Take `CC1(c2c[nH]c3c(NS(C)(=O)=O)cccc23)CCOc2cc(F)ccc21` (single isomer, unassigned) [Example 34B, N-[3-(7-Fluoro-4-methyl-chroman-4-yl)-1H-indol-7-yl]-methanesulfonamide]: the Ki was no more than 500 nM.
Consider `CCC1(c2c[nH]c3c(NS(C)(=O)=O)cccc23)CCOc2cc(F)ccc21` (single isomer, unassigned) [Example 35A, N-[3-(4-Ethyl-7-fluoro-chroman-4-yl)-1H-indol-7-yl]-methanesulfonamide], for which the Ki was no more than 500 nM.
As to `CCC1(c2c[nH]c3c(NS(C)(=O)=O)cccc23)CCOc2cc(F)ccc21` (single isomer, unassigned) [Example 35B, N-[3-(4-Ethyl-7-fluoro-chroman-4-yl)-1H-indol-7-yl]-methanesulfonamide], the Ki is no more than 500 nM.
As for `CCC1(c2c[nH]c3c(NS(C)(=O)=O)cccc23)CCOc2cc(F)cc(F)c21` (single isomer, unassigned) [Example 36A, N-[3-(4-Ethyl-5,7-difluoro-chroman-4-yl)-1H-indol-7-yl]-methanesulfonamide], the Ki was no more than 500 nM.
With `CCC1(c2c[nH]c3c(NS(C)(=O)=O)cccc23)CCOc2cc(F)cc(F)c21` (single isomer, unassigned) [Example 36B, N-[3-(4-Ethyl-5,7-difluoro-chroman-4-yl)-1H-indol-7-yl]-methanesulfonamide] the figure was no more than 500 nM.
With `CS(=O)(=O)Nc1cccc2c(C3(C4CC4)CCc4cc(F)ccc43)c[nH]c12` (single isomer, unassigned) [Example 39A, N-[3-(1-Cyclopropyl-5-fluoro-indan-1-yl)-1H-indol-7-yl]-methanesulfonamide] the figure was no more than 500 nM.
With `CS(=O)(=O)Nc1cccc2c(C3(C4CC4)CCc4cc(F)ccc43)c[nH]c12` (single isomer, unassigned) [Example 39B, N-[3-(1-Cyclopropyl-5-fluoro-indan-1-yl)-1H-indol-7-yl]-methanesulfonamide], the Ki is no more than 500 nM.
With `CS(=O)(=O)Nc1cccc2c(C3(CCCO)CCc4cc(F)ccc43)c[nH]c12` (single isomer, unassigned) [Example 40A, N-{3-[5-Fluoro-1-(3-hydroxy-propyl)-indan-1-yl]-1H-indol-7-yl}-methanesulfonamide] the figure was no more than 500 nM; with `CS(=O)(=O)Nc1cccc2c(C3(CCCO)CCc4cc(F)ccc43)c[nH]c12` (single isomer, unassigned) [Example 40B, N-{3-[5-Fluoro-1-(3-hydroxy-propyl)-indan-1-yl]-1H-indol-7-yl}-methanesulfonamide], no more than 500 nM; with `CCC1(c2c[nH]c3c([N+](=O)[O-])cccc23)CCc2cc(F)ccc21` (stereo not shown) [Example 2, 3-(1-Ethyl-5-fluoro-indan-1-yl)-7-nitro-1H-indole], no more than 500 nM.
Take `CCC1(c2cn(C)c3c(NS(C)(=O)=O)cccc23)CCc2cc(F)ccc21` (stereo not shown) [Example 5, N-[3-(1-Ethyl-5-fluoro-indan-1-yl)-1-methyl-1H-indol-7-yl]-methanesulfonamide]: the Ki was no more than 500 nM.
With `CCC1(c2c[nH]c3c(N)cccc23)CCc2cc(F)ccc21` (stereo not shown) [Example 14, 3-(1-Ethyl-5-fluoro-indan-1-yl)-1H-indol-7-ylamine] the figure was no more than 1000 nM; with `CCC1(c2c[nH]c3c(NC(=O)OC)cccc23)CCc2cc(F)ccc21` (stereo not shown) [Example 15, [3-(1-Ethyl-5-fluoro-indan-1-yl)-1H-indol-7-yl]-carbamic acid methyl ester], no more than 500 nM; with `CCC1(c2c[nH]c3c(NC(C)=O)cccc23)CCc2cc(F)ccc21` (stereo not shown) [Example 16, N-[3-(1-ethyl-5-fluoro-indan-1-yl)-1H-indol-7-yl]-acetamide], no more than 500 nM.
The result for `CCC1(c2c[nH]c3c(NS(=O)(=O)N(C)C)cccc23)CCc2cc(F)ccc21` (stereo not shown) [Example 17] reads no more than 500 nM; that for `CCC1(c2c[nH]c3c(NS(=O)(=O)c4ccccc4)cccc23)CCc2cc(F)ccc21` (stereo not shown) [Example 18, N-[3-(1-ethyl-5-fluoro-indan-1-yl)-1H-indol-7-yl]-benzenesulfonamide], no more than 500 nM; that for `CCC1(c2c[nH]c3c(NS(=O)(=O)CC)cccc23)CCc2cc(F)ccc21` (stereo not shown) [Example 19, Ethanesulfonic acid [3-(1-ethyl-5-fluoro-indan-1-yl)-1H-indol-7-yl]-amide], no more than 500 nM.
For the compound `CS(=O)(=O)Nc1cccc2c(C3(CCCI)CCc4cc(F)ccc43)c[nH]c12` (stereo not shown) [Example 41, N-{3-[5-Fluoro-1-(3-iodo-propyl)-indan-1-yl]-1H-indol-7-yl}-methanesulfonamide], the Ki is no more than 500 nM.
The result for `CNCCCC1(c2c[nH]c3c(NS(C)(=O)=O)cccc23)CCc2cc(F)ccc21` (stereo not shown) [Example 42, N-{3-[5-Fluoro-1-(3-methylamino-propyl)-indan-1-yl]-1H-indol-7-yl}-methanesulfonamide] reads no more than 500 nM.
